pIC50: −log10 of the molar value.
Biological target: T1, monoacylglycerol lipase (MAGL) (Homo sapiens, UniProt Q99685)
T1 construct: gene MGLL
T1 sequence (Q99685 1-303): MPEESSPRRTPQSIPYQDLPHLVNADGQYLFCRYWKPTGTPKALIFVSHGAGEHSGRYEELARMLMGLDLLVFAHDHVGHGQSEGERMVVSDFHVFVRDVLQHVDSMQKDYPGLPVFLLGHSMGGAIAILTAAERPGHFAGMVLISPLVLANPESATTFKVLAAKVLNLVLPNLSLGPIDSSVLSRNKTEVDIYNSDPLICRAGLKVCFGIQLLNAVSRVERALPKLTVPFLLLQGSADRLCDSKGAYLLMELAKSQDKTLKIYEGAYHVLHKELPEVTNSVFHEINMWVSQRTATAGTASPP
Experiment: colorimetric MAGL inhibition assay (Cayman kit […], 4-nitrophenyl acetate hydrolysis, […] nm)
Type: biochemical

| SMILES | pIC50 |
| --- | --- |
| O=C(O)COCCN1CCN(C(c2ccccc2)c2ccc(Cl)cc2)CC1 (centres unmarked) [cetirizine] | 5.03 |
| CC[C@@H](C(N)=O)N1CCCC1=O [levetiracetam] | 5.52 |

— PMC10675604, “Cetirizine and Levetiracetam as Inhibitors of Monoacylglycerol Lipase: Investigating Their Repurposing Potential as Novel Osteoarthritic Pain Therapies” (Pharmaceuticals, 2023)
